Data: patent US5773449A, “Thioquinolone compounds which have useful pharmaceutical activity” (Zenyaku Kogyo Kabushiki Kaisha, priority 1994, dated 1998)
In brackets after ≈: the same amount, converted by molar mass.

system: S.aureus FDA 209P; test: Antibacterial Test 2: agar plate dilution method (aerobic MIC method), S.aureus; type: cell-based; conditions: Staphylococcus aureus, FDA209P, sensitive-disk agar medium-N
Procedure: (§1) Then, tested were antibacterial activities of the typical compounds of the present invention against gram-positive and-negative bacteria other than Hp. MICs of the typical compounds of the present invention were determined in substantial accordance with agar plate dilution method (aerobic MIC method) based on Standard method of The Japan Society of Chemotherapy.
(§2) The respective test compound were dissolved in dimethyl sulfoxide (DMSO) and serially diluted twofold. These diluted solutions of the compounds were respectively added to sensitive-disk agar medium-N (manufactured by NISSUI SEIYAKU) to prepare agar plates for determination with concentration of 0.05-100 μg/ml.
(§3) The below-mentioned strains freezingly conserved at -135° C. were thawed in a warm bath (40° C.), cultured in a sensitivity-determining bouillon at 37° C. for 18-20 hours, and then diluted with the above-mentioned medium to prepare about 1.0×10^6CFU/ml of bacterial solution.
(§4) Inoculation was made by 5 μl by multi-inoculator (manufactured by SAKUMA SEISAKUSHO). Culturing was made under the same conditions as those of the pre-culturing and the MIC (unit: μg/ml) was determined by observing whether the bacteria grew or not.

Question: With `S=c1cc[nH]c2cc(Oc3ccccc3)ccc12` [compound 38, 7-Phenoxyquinoline-4(1H)-thione] as the compound, how does the MIC read?
Answer: > 100 µg/mL

Question: For `S=c1cc[nH]c2c1ccc1ccccc12` [compound 39, Benzo[h]quinoline-4(1H)-thione], which MIC is on record?
Answer: > 100 µg/mL

Question: How did the MIC turn out when `S=c1cc[nH]c2c3c(ccc12)CCCC3` [compound 40, 7,8,9,10-Tetrahydrobenzo[h]quinoline-4(1H)-thione] was run?
Answer: > 100 µg/mL

Question: `Cc1cccc2c(=S)cc[nH]c12` [compound 41, 8-Methylquinoline-4(1H)-thione] was tested. Which MIC did it give?
Answer: > 100 µg/mL

Question: For `S=c1cc[nH]c2cc(Cc3ccccc3)ccc12` [compound 47, 7-Benzylquinoline-4(1H)-thione], which MIC is on record?
Answer: > 100 µg/mL

Question: For `CN(C)c1ccc2c(=S)cc[nH]c2c1` [compound 48, 7-N,N-Dimethylaminoquinoline-4(1H)-thione], which MIC is on record?
Answer: 100 µg/mL (≈ 489 µM)

system: K.pneumoniae PCI 602; test: Antibacterial Test 2: agar plate dilution method (aerobic MIC method), K.pneumoniae; type: cell-based; conditions: Klebsiella pneumoniae, PCI602, sensitive-disk agar medium-N
Procedure: as §1, §2, §3, §4

Question: How did the MIC turn out when `S=c1cc[nH]c2cc(Oc3ccccc3)ccc12` [compound 38, 7-Phenoxyquinoline-4(1H)-thione] was run?
Answer: > 100 µg/mL

Question: For `S=c1cc[nH]c2c1ccc1ccccc12` [compound 39, Benzo[h]quinoline-4(1H)-thione], which MIC is on record?
Answer: > 100 µg/mL

Question: For `S=c1cc[nH]c2c3c(ccc12)CCCC3` [compound 40, 7,8,9,10-Tetrahydrobenzo[h]quinoline-4(1H)-thione], which MIC is on record?
Answer: > 100 µg/mL

Question: How did the MIC turn out when `Cc1cccc2c(=S)cc[nH]c12` [compound 41, 8-Methylquinoline-4(1H)-thione] was run?
Answer: > 100 µg/mL

Question: How did the MIC turn out when `S=c1cc[nH]c2cc(Cc3ccccc3)ccc12` [compound 47, 7-Benzylquinoline-4(1H)-thione] was run?
Answer: > 100 µg/mL

Question: How did the MIC turn out when `CN(C)c1ccc2c(=S)cc[nH]c2c1` [compound 48, 7-N,N-Dimethylaminoquinoline-4(1H)-thione] was run?
Answer: > 100 µg/mL

system: P.aeruginosa IFO 3445; test: Antibacterial Test 2: agar plate dilution method (aerobic MIC method), P.aeruginosa; type: cell-based; conditions: Pseudomonas aeruginosa, IFO3445, sensitive-disk agar medium-N
Procedure: as §1, §2, §3, §4

Question: Which MIC does the source give for `S=c1cc[nH]c2cc(Oc3ccccc3)ccc12` [compound 38, 7-Phenoxyquinoline-4(1H)-thione] here?
Answer: > 100 µg/mL

Question: How did the MIC turn out when `S=c1cc[nH]c2c1ccc1ccccc12` [compound 39, Benzo[h]quinoline-4(1H)-thione] was run?
Answer: > 100 µg/mL

Question: Which MIC does the source give for `S=c1cc[nH]c2c3c(ccc12)CCCC3` [compound 40, 7,8,9,10-Tetrahydrobenzo[h]quinoline-4(1H)-thione] here?
Answer: > 100 µg/mL

Question: With `Cc1cccc2c(=S)cc[nH]c12` [compound 41, 8-Methylquinoline-4(1H)-thione] as the compound, how does the MIC read?
Answer: > 100 µg/mL

Question: With `S=c1cc[nH]c2cc(Cc3ccccc3)ccc12` [compound 47, 7-Benzylquinoline-4(1H)-thione] as the compound, how does the MIC read?
Answer: > 100 µg/mL

Question: For `CN(C)c1ccc2c(=S)cc[nH]c2c1` [compound 48, 7-N,N-Dimethylaminoquinoline-4(1H)-thione], which MIC is on record?
Answer: > 100 µg/mL

system: E.coli NIHJ JC-2; test: Antibacterial Test 2: agar plate dilution method (aerobic MIC method), E.coli; type: cell-based; conditions: Escherichia coli, NIHJJC2, sensitive-disk agar medium-N
Procedure: as §1, §2, §3, §4

Question: Which MIC does the source give for `S=c1cc[nH]c2cc(Oc3ccccc3)ccc12` [compound 38, 7-Phenoxyquinoline-4(1H)-thione] here?
Answer: > 100 µg/mL

Question: For `S=c1cc[nH]c2c1ccc1ccccc12` [compound 39, Benzo[h]quinoline-4(1H)-thione], which MIC is on record?
Answer: > 100 µg/mL

Question: For `S=c1cc[nH]c2c3c(ccc12)CCCC3` [compound 40, 7,8,9,10-Tetrahydrobenzo[h]quinoline-4(1H)-thione], which MIC is on record?
Answer: > 100 µg/mL

Question: Which MIC does the source give for `Cc1cccc2c(=S)cc[nH]c12` [compound 41, 8-Methylquinoline-4(1H)-thione] here?
Answer: > 100 µg/mL

Question: For `S=c1cc[nH]c2cc(Cc3ccccc3)ccc12` [compound 47, 7-Benzylquinoline-4(1H)-thione], which MIC is on record?
Answer: > 100 µg/mL

Question: How did the MIC turn out when `CN(C)c1ccc2c(=S)cc[nH]c2c1` [compound 48, 7-N,N-Dimethylaminoquinoline-4(1H)-thione] was run?
Answer: > 100 µg/mL

system: M.luteus ATCC 9341; test: Antibacterial Test 2: agar plate dilution method (aerobic MIC method), M.luteus; type: cell-based; conditions: Micrococcus luteus, ATCC9341, sensitive-disk agar medium-N
Procedure: as §1, §2, §3, §4

Question: With `S=c1cc[nH]c2cc(Oc3ccccc3)ccc12` [compound 38, 7-Phenoxyquinoline-4(1H)-thione] as the compound, how does the MIC read?
Answer: > 100 µg/mL

Question: `S=c1cc[nH]c2c1ccc1ccccc12` [compound 39, Benzo[h]quinoline-4(1H)-thione] was tested. Which MIC did it give?
Answer: > 100 µg/mL

Question: Which MIC does the source give for `S=c1cc[nH]c2c3c(ccc12)CCCC3` [compound 40, 7,8,9,10-Tetrahydrobenzo[h]quinoline-4(1H)-thione] here?
Answer: > 100 µg/mL

Question: For `Cc1cccc2c(=S)cc[nH]c12` [compound 41, 8-Methylquinoline-4(1H)-thione], which MIC is on record?
Answer: > 100 µg/mL

Question: Which MIC does the source give for `S=c1cc[nH]c2cc(Cc3ccccc3)ccc12` [compound 47, 7-Benzylquinoline-4(1H)-thione] here?
Answer: 50 µg/mL (≈ 199 µM)

Question: `CN(C)c1ccc2c(=S)cc[nH]c2c1` [compound 48, 7-N,N-Dimethylaminoquinoline-4(1H)-thione] was tested. Which MIC did it give?
Answer: > 100 µg/mL

system: Helicobacter pylori standard strain ATCC 43526 (NCTC 11916); test: Antibacterial test 1: agar plate dilution method (anaerobic MIC method) against Hp; type: cell-based; conditions: 72 h; Helicobacter pylori ATCC 43526 (NCTC 11916); brucella agar + 7% horse blood, microaerobic, 37° C., 3 days
Procedure: Antibacterial test against Hp was performed in substantial accordance with agar plate dilution method (anaerobic MIC method) based on Standard method of The Japan Society of Chemotherapy to determine minimum inhibitory concentration (MIC) of the respective test compounds. The respective test compounds were sequentially dissolved in dimethyl sulfoxide (DMSO) and serially diluted twofold. […] Strain used for inoculation was Helicobacter pylori standard strain ATCC 43526 (NCTC 11916). For pre-culturing of bacteria to be inoculated, the above-mentioned strain freezingly conserved at -135° C. was thawed in a warm bath (40° C.), applied on a brucella agar medium containing 7% horse blood free from fibrin, and microaerobically cultured in a jar for anaerobic bacteria at 37° C. for 3 days. The solution of bacteria to be inoculated was prepared by collecting colonies grown on the culture medium and suspending the same in the brucella broth.

Question: `S=c1cc[nH]c2cc(Oc3ccccc3)ccc12` [compound 38, 7-Phenoxyquinoline-4(1H)-thione] was tested. Which MIC did it give?
Answer: 0.78 µg/mL

Question: How did the MIC turn out when `S=c1cc[nH]c2c1ccc1ccccc12` [compound 39, Benzo[h]quinoline-4(1H)-thione] was run?
Answer: 0.39 µg/mL

Question: Which MIC does the source give for `S=c1cc[nH]c2c3c(ccc12)CCCC3` [compound 40, 7,8,9,10-Tetrahydrobenzo[h]quinoline-4(1H)-thione] here?
Answer: 0.2 µg/mL

Question: Which MIC does the source give for `Cc1cccc2c(=S)cc[nH]c12` [compound 41, 8-Methylquinoline-4(1H)-thione] here?
Answer: 0.78 µg/mL

Question: For `S=c1cc[nH]c2cc(Cc3ccccc3)ccc12` [compound 47, 7-Benzylquinoline-4(1H)-thione], which MIC is on record?
Answer: 0.2 µg/mL

Question: How did the MIC turn out when `CN(C)c1ccc2c(=S)cc[nH]c2c1` [compound 48, 7-N,N-Dimethylaminoquinoline-4(1H)-thione] was run?
Answer: 0.2 µg/mL

system: E.faecalis RIMD 3336001; test: Antibacterial Test 2: agar plate dilution method (aerobic MIC method), E.faecalis; type: cell-based; conditions: Enterococcus faecalis, RIMD3336001, sensitive-disk agar medium-N
Procedure: as §1, §2, §3, §4

Question: With `S=c1cc[nH]c2cc(Oc3ccccc3)ccc12` [compound 38, 7-Phenoxyquinoline-4(1H)-thione] as the compound, how does the MIC read?
Answer: > 100 µg/mL

Question: Which MIC does the source give for `S=c1cc[nH]c2c1ccc1ccccc12` [compound 39, Benzo[h]quinoline-4(1H)-thione] here?
Answer: > 100 µg/mL

Question: Which MIC does the source give for `S=c1cc[nH]c2c3c(ccc12)CCCC3` [compound 40, 7,8,9,10-Tetrahydrobenzo[h]quinoline-4(1H)-thione] here?
Answer: > 100 µg/mL

Question: With `Cc1cccc2c(=S)cc[nH]c12` [compound 41, 8-Methylquinoline-4(1H)-thione] as the compound, how does the MIC read?
Answer: > 100 µg/mL

Question: For `S=c1cc[nH]c2cc(Cc3ccccc3)ccc12` [compound 47, 7-Benzylquinoline-4(1H)-thione], which MIC is on record?
Answer: > 100 µg/mL

Question: For `CN(C)c1ccc2c(=S)cc[nH]c2c1` [compound 48, 7-N,N-Dimethylaminoquinoline-4(1H)-thione], which MIC is on record?
Answer: > 100 µg/mL

system: B.subtilis PCI 219; test: Antibacterial Test 2: agar plate dilution method (aerobic MIC method), B.subtilis; type: cell-based; conditions: Bacillus subtilis, PCI219, sensitive-disk agar medium-N
Procedure: as §1, §2, §3, §4

Question: `S=c1cc[nH]c2cc(Oc3ccccc3)ccc12` [compound 38, 7-Phenoxyquinoline-4(1H)-thione] was tested. Which MIC did it give?
Answer: > 100 µg/mL

Question: How did the MIC turn out when `S=c1cc[nH]c2c1ccc1ccccc12` [compound 39, Benzo[h]quinoline-4(1H)-thione] was run?
Answer: > 100 µg/mL

Question: Which MIC does the source give for `S=c1cc[nH]c2c3c(ccc12)CCCC3` [compound 40, 7,8,9,10-Tetrahydrobenzo[h]quinoline-4(1H)-thione] here?
Answer: > 100 µg/mL

Question: With `Cc1cccc2c(=S)cc[nH]c12` [compound 41, 8-Methylquinoline-4(1H)-thione] as the compound, how does the MIC read?
Answer: > 100 µg/mL

Question: Which MIC does the source give for `S=c1cc[nH]c2cc(Cc3ccccc3)ccc12` [compound 47, 7-Benzylquinoline-4(1H)-thione] here?
Answer: > 100 µg/mL

Question: With `CN(C)c1ccc2c(=S)cc[nH]c2c1` [compound 48, 7-N,N-Dimethylaminoquinoline-4(1H)-thione] as the compound, how does the MIC read?
Answer: > 100 µg/mL
